Laboratory results reported in patent publication US6331555A, “Treatment of platelet derived growth factor related disorders such as cancers” (priority 1999, dated 2001).
Where two headings read alike, the source gives them in different places.

Assays:
Type in all cases: cell-based
EGFR = molecular target: T1, EGFR (Homo sapiens, UniProt P00533); assay: Receptor tyrosine kinase inhibition, EGFR
T1 construct: expressed in transfected cells; host or cells: NIH3T3 mouse fibroblasts, retroviral vector
Description: (§1) For western blotting, cells were plated in 2 mL growth medium into 6-well dishes (500,000 cells per well) and allowed to attach overnight. The medium was replaced with 2 mL MCDB 105 (UCSF Cell Culture Facility) supplemented with 1% FBS. The plates were then incubated overnight at 37° C., ambient CO2. […] After a 7 min incubation at room temperature with ligand, the plates were put on ice and washed three times with 1 mL ice-cold PBS plus 1 mM orthovanadate. Lysis was achieved by pipetting cells in 0.5 mL of buffer containing 50 mM Tris, pH 7.4, 10% glycerol, 1% NP-40, 2 mM EDTA, 1 mM sodium vanadate (Na3 VO4), 10 mM pyrophosphate, 1 mM PMSF, […]. A 300 μL aliquot of each lysate was immediately added to 100 μL 4×Laemmli sample buffer ([…] Tris pH 6.9, 20% glycerol, 7% SDS, 5 mM EDTA, 5% β-mercaptoethanol) containing phosphatase inhibitors, 2 mM Na3 VO4 and 10 mM pyrophosphate. Samples were boiled for 5 min, frozen in dry ice-ethanol, and stored at -80° C. Proteins were resolved by SDS-PAGE (Bio-Rad Miniprotean II) and transferred to nitrocellulose membrane (Schleicher & Schuell) at 120 volts for 1 hr at room temperature in buffer containing 25 mM Tris pH 8.3, 20% methanol, 0.2 M glycine, 0.1% SDS. The integrity of the protein-to-membrane transfer was determined by staining with 1% Ponceau S in 5% acetic acid for 5 min. After destaining in several distilled water rinses, the membrane was soaked overnight in blocking buffer containing 5% milk in Tris-buffered saline, 0.05% Tween 20. Phosphotyresine was detected by incubating the membrane (1 hr at room temperature) with an anti-phosphotyosine antiserum diluted in blocking buffer at 1:3000. For C6 cells, PDGF-β receptor content in the lysates was confirmed in duplicate sample lanes by western blotting using an antibody specific for PDGF-β receptor (UBI). The antibodies were visualized using ECL reagent from Amersham and by exposure to Fuji RX film.
(§2) For ELISA assays, cells were grown to 80-90% confluency in growth medium and seeded in 96-well tissue culture plates in 0.5% serum at 25,000 to 30,000 cells per well. After overnight incubation in 0.5% serum-containingmedium, cells were changed to serum-free medium and treated with test compound for 2 hr in a 5% CO2, 37° C. incubator. Cells were then stimulated with ligand for 5-10 min followed by lysis with HNTG (20 mM Hepes, 150 mM NaCl, 10% glycerol, 5 mM EDTA, 5 mM Na3 VO4 0.2% Triton X-100, and 2 mM NaPyr). Cell lysates (0.5 mg/well in PBS) were transferred to ELISA plates previously coated with receptor-specific antibody and which had been blocked with 5% milk in TBST (50 mM Tris-HCl pH 7.2, 150 mM NaCl and 0.1% Triton X-100) at room temperature for 30 min. Lysates were incubated with shaking for 1 hr at room temperature. The plates were washed with TBST four times and then incubated with polyclonol anti-phosphotyrosine antibody at room temperature for 30 min. Excess anti-phosphotyrosine antibody was removed by rinsing the plate with TBST four times. Goat anti-rabbit IgG antibody was added to the ELISA plate for 30 min at room temperature followed by rinsing with TBST four more times.
(§3) The ability of different compound to inhibit different receptor tyrosine kinases was tested.

PDGFR = PDGFR (Homo sapiens, UniProt P09619); assay: PDGF-stimulated receptor phosphorylation in U1242 cells, ELISA; set-up: U1242 (PDGF-β receptor); host or cells: U1242 MG glioma cells; conditions: for IC50: 100 ng/ml PDGF-BB, read-out: ELISA P-TYR U1242 IC50
Method in brief: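 U1242 MG cells in 0.5% serum were pretreated with compound for 2 h at 37° C, then stimulated 5–10 min with PDGF-BB (100 ng/ml). Lysates captured on anti-PDGF receptor-coated plates; receptor phosphotyrosine detected by anti-phosphotyrosine ELISA with POD/ABTS read-out at 410 nm.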

FLK-1 = molecular target: T2, FLK-1 (Mus musculus, UniProt P35918); assay: Receptor tyrosine kinase inhibition, FLK-1
T2 construct: expressed in transfected cells; host or cells: NIH3T3 mouse fibroblasts, retroviral vector
Description: as §1, §2, §3

[1] = W = done in Western assay, read-out: FLK-1 IC50 (W)

Sequence of PDGFR (P09619 33-1106): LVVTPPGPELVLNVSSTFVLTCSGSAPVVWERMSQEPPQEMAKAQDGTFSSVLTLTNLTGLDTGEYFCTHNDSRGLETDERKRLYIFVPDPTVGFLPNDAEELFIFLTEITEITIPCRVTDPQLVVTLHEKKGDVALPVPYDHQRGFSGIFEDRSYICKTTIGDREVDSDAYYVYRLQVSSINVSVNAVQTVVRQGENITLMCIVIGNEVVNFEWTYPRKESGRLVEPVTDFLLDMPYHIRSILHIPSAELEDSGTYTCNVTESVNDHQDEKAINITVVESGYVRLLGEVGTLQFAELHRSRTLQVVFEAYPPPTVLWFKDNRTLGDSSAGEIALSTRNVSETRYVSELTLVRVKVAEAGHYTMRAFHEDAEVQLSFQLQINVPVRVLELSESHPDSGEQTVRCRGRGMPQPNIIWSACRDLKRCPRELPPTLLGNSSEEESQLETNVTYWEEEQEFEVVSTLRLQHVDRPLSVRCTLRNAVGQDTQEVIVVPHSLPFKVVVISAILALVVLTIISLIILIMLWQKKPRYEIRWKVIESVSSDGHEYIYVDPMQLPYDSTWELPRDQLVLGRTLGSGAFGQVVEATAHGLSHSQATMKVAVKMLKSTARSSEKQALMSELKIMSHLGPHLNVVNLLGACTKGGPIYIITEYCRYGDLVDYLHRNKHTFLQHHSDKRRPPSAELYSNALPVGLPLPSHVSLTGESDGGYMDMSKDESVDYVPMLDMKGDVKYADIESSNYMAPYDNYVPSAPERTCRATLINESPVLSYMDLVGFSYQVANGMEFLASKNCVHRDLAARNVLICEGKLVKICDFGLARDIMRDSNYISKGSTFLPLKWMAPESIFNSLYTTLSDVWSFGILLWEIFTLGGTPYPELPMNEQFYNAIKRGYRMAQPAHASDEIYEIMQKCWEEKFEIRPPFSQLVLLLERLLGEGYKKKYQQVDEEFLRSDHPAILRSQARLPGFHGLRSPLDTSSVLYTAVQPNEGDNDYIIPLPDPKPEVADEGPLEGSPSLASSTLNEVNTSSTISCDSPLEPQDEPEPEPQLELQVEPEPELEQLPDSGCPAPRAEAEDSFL
T2 sequence (P35918 20-1345): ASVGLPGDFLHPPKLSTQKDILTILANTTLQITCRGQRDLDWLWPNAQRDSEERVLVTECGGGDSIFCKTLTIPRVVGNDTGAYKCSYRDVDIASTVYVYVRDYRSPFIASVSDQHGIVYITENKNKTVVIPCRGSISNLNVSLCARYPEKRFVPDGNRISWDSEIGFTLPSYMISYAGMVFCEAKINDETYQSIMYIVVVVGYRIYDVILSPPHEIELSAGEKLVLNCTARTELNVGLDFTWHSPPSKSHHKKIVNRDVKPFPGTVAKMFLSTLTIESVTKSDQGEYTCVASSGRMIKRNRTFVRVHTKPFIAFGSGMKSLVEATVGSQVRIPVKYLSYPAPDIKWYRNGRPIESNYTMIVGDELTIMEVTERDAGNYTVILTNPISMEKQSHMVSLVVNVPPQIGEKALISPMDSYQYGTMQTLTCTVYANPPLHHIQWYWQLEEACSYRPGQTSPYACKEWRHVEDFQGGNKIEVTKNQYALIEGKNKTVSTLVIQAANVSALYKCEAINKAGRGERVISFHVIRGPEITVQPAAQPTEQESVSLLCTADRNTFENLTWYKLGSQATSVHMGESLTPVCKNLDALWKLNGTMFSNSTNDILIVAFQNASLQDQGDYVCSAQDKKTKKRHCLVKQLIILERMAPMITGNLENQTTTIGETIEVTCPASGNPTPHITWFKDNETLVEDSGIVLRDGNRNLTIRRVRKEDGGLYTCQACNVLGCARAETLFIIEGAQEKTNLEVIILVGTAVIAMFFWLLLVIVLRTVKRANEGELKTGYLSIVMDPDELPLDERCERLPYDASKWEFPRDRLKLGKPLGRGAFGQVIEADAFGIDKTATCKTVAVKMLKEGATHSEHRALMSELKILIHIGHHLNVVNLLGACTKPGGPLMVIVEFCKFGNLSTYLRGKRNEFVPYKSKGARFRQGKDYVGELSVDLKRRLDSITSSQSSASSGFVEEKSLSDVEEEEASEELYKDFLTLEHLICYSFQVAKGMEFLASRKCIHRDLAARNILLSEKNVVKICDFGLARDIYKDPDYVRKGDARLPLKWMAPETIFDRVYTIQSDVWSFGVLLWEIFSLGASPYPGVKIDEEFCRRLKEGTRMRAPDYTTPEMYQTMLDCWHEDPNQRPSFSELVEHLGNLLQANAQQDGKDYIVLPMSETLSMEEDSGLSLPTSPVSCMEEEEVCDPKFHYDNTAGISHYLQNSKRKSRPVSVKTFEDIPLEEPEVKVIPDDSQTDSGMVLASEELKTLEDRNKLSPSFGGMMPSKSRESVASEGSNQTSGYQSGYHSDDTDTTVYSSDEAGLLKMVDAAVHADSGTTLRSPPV
T1 sequence (P00533 25-1210): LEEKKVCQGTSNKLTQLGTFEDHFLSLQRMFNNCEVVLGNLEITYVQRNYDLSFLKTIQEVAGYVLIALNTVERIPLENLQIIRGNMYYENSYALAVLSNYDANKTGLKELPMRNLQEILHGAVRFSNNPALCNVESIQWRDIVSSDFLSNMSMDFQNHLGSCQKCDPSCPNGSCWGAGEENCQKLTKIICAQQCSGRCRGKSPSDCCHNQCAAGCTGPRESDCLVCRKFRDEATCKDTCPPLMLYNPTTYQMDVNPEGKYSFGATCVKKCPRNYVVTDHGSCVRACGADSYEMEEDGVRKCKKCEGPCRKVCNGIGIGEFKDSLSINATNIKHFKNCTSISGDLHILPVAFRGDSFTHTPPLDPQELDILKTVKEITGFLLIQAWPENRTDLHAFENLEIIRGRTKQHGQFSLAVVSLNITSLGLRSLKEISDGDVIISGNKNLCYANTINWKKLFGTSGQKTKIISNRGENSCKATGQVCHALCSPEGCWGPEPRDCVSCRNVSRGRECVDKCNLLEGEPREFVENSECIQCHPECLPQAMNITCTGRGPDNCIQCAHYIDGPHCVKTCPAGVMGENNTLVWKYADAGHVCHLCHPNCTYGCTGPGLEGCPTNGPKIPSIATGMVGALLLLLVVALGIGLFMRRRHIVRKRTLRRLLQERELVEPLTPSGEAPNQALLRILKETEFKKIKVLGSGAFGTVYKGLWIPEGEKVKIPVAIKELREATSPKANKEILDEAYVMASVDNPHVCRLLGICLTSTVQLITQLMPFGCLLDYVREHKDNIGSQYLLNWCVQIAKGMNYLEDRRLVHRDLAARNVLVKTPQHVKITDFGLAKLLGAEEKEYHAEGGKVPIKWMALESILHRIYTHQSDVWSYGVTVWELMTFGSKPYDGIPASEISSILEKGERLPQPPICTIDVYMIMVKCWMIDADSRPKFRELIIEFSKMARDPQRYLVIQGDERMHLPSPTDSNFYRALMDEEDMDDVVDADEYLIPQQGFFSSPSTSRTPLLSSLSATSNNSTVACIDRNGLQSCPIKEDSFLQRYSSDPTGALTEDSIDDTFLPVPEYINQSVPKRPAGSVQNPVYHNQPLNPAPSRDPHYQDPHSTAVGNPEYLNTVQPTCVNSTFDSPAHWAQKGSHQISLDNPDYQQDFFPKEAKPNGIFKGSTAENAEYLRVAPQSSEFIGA

IC50 (PDGFR) [µM] | IC50 (FLK-1; read-out: FLK-1 IC50) [µM] | IC50 (EGFR; W = done in Western assay, read-out: EGFR ID50 (W)) [µM] | Compound | EGF receptor phosphorylation (EGFR) | IC50 (EGFR; read-out: EGFR ID50) [µM] | IC50 (FLK-1; [1]) [µM] | inhibition of PDGF-stimulated receptor phosphorylation (PDGFR)
20 | > 50 | – | N#CC(=Cc1c[nH]c2ccccc12)c1[nH]nc(N)c1C#N [Compound D14] | do not effect EGF or HER2 phosphorylation | > 100 | – | –
8 | > 50 | – | N#CC(=Cc1c[nH]c2ccccc12)C(N)=S [Compound D11] | – | – | – | –
– | – | – | Cc1cc2ncc(-c3ccccc3)nc2cc1C [Compound G13] | do not effect EGF or HER2 phosphorylation | – | > 10 | had the lowest IC50
10 | – | 500 | Cc1cc2nc(-c3ccccc3)c(=O)[nH]c2cc1C [Compound G18] | – | – | – | –
20 | > 50 | – | CN(C)CCCn1cc(C=C(C#N)c2[nH]nc(N)c2C#N)c2ccccc21 [Compound D15] | – | – | – | –
45 | > 50 | – | O=c1c2ccccc2nc(C=Cc2ccc(O)c(O)c2)n1CCO [Compound F10] | – | – | – | –

Compound | IC50 (PDGFR) [µM] | IC50 (FLK-1; read-out: FLK-1 IC50) [µM] | IC50 (EGFR; W = done in Western assay, read-out: EGFR ID50 (W)) [µM] | EGF receptor phosphorylation (EGFR) | IC50 (EGFR; read-out: EGFR ID50) [µM] | IC50 (FLK-1; [1]) [µM] | inhibition of PDGF-stimulated receptor phosphorylation (PDGFR)
Cc1oncc1C(=O)Nc1ccc(C(F)(F)F)cc1 [Compound A10, 5-methylisoxazole-4 carboxylic acid-(4-trifluromethyl)-anilide] | 65 | – | – | little if any effect on EGF-receptor or HER2 phosphorylation | – | – | –
COc1cc2ncc(-c3ccccc3)nc2cc1OC [Compound G14] | 0.8 | – | – | do not effect EGF or HER2 phosphorylation | – | > 30 | had the lowest IC50
c1ccc(-c2cnc3cc4ccccc4cc3n2)cc1 [Compound G22] | 1 | – | – | – | > 100 | – | –
